Data on 27 compounds can be found in patent US6169091A, “Bicyclic heteroaromatic compounds as protein tyrosine kinase inhibitors” (Glaxo Wellcome Inc., priority 1995, dated 2001).

Broadly, the IC50 is the concentration at which inhibition is half-maximal.

The conditions of test [1]: stated without data, in contrast to the compounds of the invention; cited from earlier work.
Test [2] relates to EGF receptor tyrosine kinase. As to conditions: Fry et al (Science, 265, 1093 (1994)); cited from earlier work.
In test [3] the test system is other tyrosine kinases. The note with it: Fry et al (Science, 265, 1093 (1994)); cited from earlier work.
For test [4], the target named is T1, c-erbB-2 (Homo sapiens, UniProt P04626).
T1 construct: recombinant construct of the intracellular domain of c-erbB-2 that is constitutively active; made in house
T1 sequence (P04626 676-1255 limits assumed): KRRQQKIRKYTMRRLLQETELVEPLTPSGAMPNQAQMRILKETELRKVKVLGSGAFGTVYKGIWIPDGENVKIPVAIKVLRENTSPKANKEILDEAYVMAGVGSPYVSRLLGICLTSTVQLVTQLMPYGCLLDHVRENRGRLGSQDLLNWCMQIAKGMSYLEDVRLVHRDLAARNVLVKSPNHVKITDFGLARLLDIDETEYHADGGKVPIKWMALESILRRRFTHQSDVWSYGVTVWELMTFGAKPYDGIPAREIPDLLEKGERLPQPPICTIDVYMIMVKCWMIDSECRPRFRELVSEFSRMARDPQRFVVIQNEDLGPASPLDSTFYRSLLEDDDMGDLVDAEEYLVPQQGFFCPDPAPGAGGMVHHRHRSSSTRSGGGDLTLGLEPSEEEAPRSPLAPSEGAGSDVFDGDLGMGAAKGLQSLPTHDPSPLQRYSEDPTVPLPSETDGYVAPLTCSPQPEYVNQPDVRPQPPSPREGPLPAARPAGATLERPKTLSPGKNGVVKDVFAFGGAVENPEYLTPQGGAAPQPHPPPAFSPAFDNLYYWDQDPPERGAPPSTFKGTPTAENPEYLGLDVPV
The test is described as follows: c-erbB-2 substrate phosphorylation assay (33P-labelled γ-phosphate from ATP onto PolyGluAlaTyr). The class given is biochemical. As to conditions: 1 hour, room temperature, 100 μM ATP, 10 mM MnCl2, pH 7.4, 2% DMSO; recombinant intracellular domain of c-erbB-2. Here is the method:
Compounds of the present invention were tested for protein tyrosine kinase inhibitory activity in a substrate phosphorylation assay and a cell proliferation assay. The substrate phosphorylation assay uses a baculovirus expressed, recombinant construct of the intracellular domain of c-erbB-2 that is constitutively active. […] The reaction is stopped by the addition of EDTA (final concentration 0.1M) and the peptide is then precipitated onto ion exchange filter paper and the incorporated radioactivity determined. The results are shown in the first column of Table 1 below as the IC50 values in nM.

The subject of test [5] is HB4a ras cells. The test is described as follows: cell proliferation assay, HB4a cells transfected with ras. The class given is cell-based. The note with it: Homo sapiens, 96 h, 4 days at 37° C., methylene blue, 0.5% DMSO, control for general toxicity. Here is the method:
(§1) Compounds of the present invention were tested for protein tyrosine kinase inhibitory activity in a substrate phosphorylation assay and a cell proliferation assay. The cell proliferation assay uses an immortalised human breast epithelial cell line (HB4a) which has been transformed by over-expression of c-erbB-2. Growth of these cells in low serum is dependent upon the c-erbB-2 tyrosine kinase activity. The specificity of the effect of the test compounds on tyrosine kinase dependent growth over general toxicity is assessed by comparison to an HB4a cell line which has been transfected with ras. Cells are plated at 3000/well in 96-well plates in 0.1 ml medium and allowed to attach overnight. test compound is added in 0.1 ml medium, with a final concentration of 0.5% DMSO, and the plates incubated for 4 days at 37° C. The cells are then examined microscopically for evidence of morphological detransformation and cell mass is estimated by staining with methylene blue and measuring the absorbance at 620 nm. The results are shown in the second and third columns of Table 1 below as the IC50 values in nM.

Test [6] concerns HB4a erbB-2 cells. The test is described as follows: cell proliferation assay, HB4a cells transformed by over-expression of c-erbB-2. The class given is cell-based. As to conditions: Homo sapiens, 96 h, low serum, 4 days at 37° C., methylene blue, 0.5% DMSO. On the procedure: as §1

The structures appear in SMILES notation. Structures can show the parent of a compound that is named as a salt. A value given as a limit tells only on which side of the number the result lay.

In the case of `COc1cc2ncnc(Nc3cccc(Br)c3)c2cc1OC`, in test [1], the in vivo activity result is “does not however exhibit good in vivo activity”. In addition, the “inhibition of the EGF receptor tyrosine kinase” value in test [2] is “picomolar concentrations”. Further, the “inhibition of other tyrosine kinases” value in test [3] is “micromolar or higher concentrations”.

As to `Clc1cc2c(Nc3ccc(OCc4ccccc4)cc3)ncnc2cn1` [Example 1, 4-(4-Benzyloxyanilino)-6-chloropyrido[3,4-]pyrimidine hydrochloride], the half-maximal inhibitory concentration (IC50) in test [4] was 58 nM; in test [5], 17000 nM; in test [6], 2700 nM.

Consider `Cn1cncc1-c1cc2c(Nc3ccc(OCc4ccccc4)cc3)ncnc2cn1` [Example 2, 4-(4-Benzyloxyanilino)-6-(N-methylimidazol-5-yl)pyrido[3,4-d]pyrimidine], for which the IC50 in test [4] is 26 nM; in test [5] it was 3700 nM; in test [6], 690 nM.

Turning to `Cn1ccnc1-c1cc2c(Nc3ccc(OCc4ccccc4)cc3)ncnc2cn1` [Example 3, 4-(4-Benzyloxyanilino)-6-(N-methylimidazol-2-yl)pyrido[3,4-d]pyrimidine], the figures for the concentration for half-maximal inhibition (IC50) in test [4], in test [5] and in test [6] were 115 nM, 44000 nM and 11000 nM, respectively.

For `Cn1nccc1-c1cc2c(Nc3ccc(OCc4ccccc4)cc3)ncnc2cn1` [Example 4, 4-(4-Benzyloxyanilino)-6-(N-methylpyrazol-2-yl)pyrido[3,4-d]pyrimidine], the IC50 in test [4] was found to be 124 nM; in test [5] it was 11000 nM; in test [6], 2500 nM.

In the case of `c1ccc(COc2ccc(Nc3ncnc4cnc(-c5ccco5)cc34)cc2)cc1` [Example 5, 4-(4-Benzyloxyanilino)-6-(furan-2-yl)pyrido[3,4-d]pyrimidine], the IC50 in test [4] is 14 nM; in test [5], 11000 nM; in test [6] it was 500 nM.

As for `CN(C)c1cc2c(Nc3ccc(OCc4ccccc4)cc3)ncnc2cn1` [Example 7, 4-(4-Benzyloxyanilino)-6-(N,N-dimethylamino)pyrido[3,4-d]pyrimidine], the IC50 in test [4] is 1.3 nM; in test [5] it was over 50000 nM; in test [6], 300 nM.

`CN1CCN(c2cc3c(Nc4ccc(OCc5ccccc5)cc4)ncnc3cn2)CC1` [Example 8, 4-(4-Benzyloxyanilino)-6-(1-methylpiperazin-4-yl)-pyrido[3,4-d]pyrimidine]: the figures for the IC50 in test [4], in test [5] and in test [6] were 20 nM, 7500 nM and 590 nM, respectively.

On to `O=S1(=O)CCN(c2cc3c(Nc4ccc(OCc5ccccc5)cc4)ncnc3cn2)CC1` [Example 11, 4-(4-Benzyloxyanilino)-6-(thiomorpholine-1,1-dioxide-4-yl)-pyrido[3,4-d]pyrimidine], for which the IC50 turned out to be 920 nM in test [4], 37000 nM in test [5] and 10000 nM in test [6].

As to `CN(C)c1cc2c(Nc3ccc(Oc4ccccc4)cc3)ncnc2cn1` [Example 12, 6-N,N-Dimethylamino-4-(4-phenoxyanilino)pyrido[3,4-d]pyrimidine], the IC50 in test [4] was 24 nM; in test [5], 31000 nM; in test [6] it was 1600 nM.

On to `O=S(=O)(c1ccccc1)c1ccc(Nc2ncnc3cnc(Cl)cc23)cc1` [Example 14, 6-Chloro-4-(4-phenylsulphonylanilino)pyrido[3,4-d]pyrimidine hydochloride], for which the IC50 in test [4] turned out to be 900 nM; in test [5], 50000 nM; in test [6] it was 15000 nM.

Turning to `CN(C)c1cc2c(Nc3ccc(S(=O)(=O)c4ccccc4)cc3)ncnc2cn1` [Example 15, 6-(N,N-Dimethylamino)-4-(4-phenylsulphonylanilino)pyrido[3,4-d]pyrimidine], the IC50 stood at 30 nM in test [4], 32000 nM in test [5] and 570 nM in test [6].

As for `CN1CCN(c2cc3c(Nc4ccc(S(=O)(=O)c5ccccc5)cc4)ncnc3cn2)CC1` [Example 16, 6-(1-Methylpiperazin-4-yl)-4-(4-phenylsulphonylanilino)-pyrido[3,4-d]pyrimidine], the IC50 in test [4] was determined as 50 nM; in test [5], 6600 nM; in test [6] it was 2400 nM.

Take `CN(C)CCN(C)c1cc2c(Nc3ccc(S(=O)(=O)c4ccccc4)cc3)ncnc2cn1` [Example 17, 6-[N-Methyl-N-(2-dimethylaminoethyl)amino]-4-(4-phenylsulphonylanilino)-pyrido[3,4-d]pyrimidine]: the figures for the IC50 in test [4], in test [5] and in test [6] were 200 nM, 10000 nM and 4400 nM, respectively.

On to `CN(CCO)c1cc2c(Nc3ccc(S(=O)(=O)c4ccccc4)cc3)ncnc2cn1` [Example 18, 6-[N-Methyl-N-(2-hydroxyethyl)amino]-4-(4-phenylsulphonylanilino)pyrido[3,4-d]pyrimidine], for which the half-maximal inhibitory concentration (IC50) came out at 5 nM in test [4], 28000 nM in test [5] and 150 nM in test [6].

For `CN(C)c1cc2c(Nc3ccc(OCC4OCCO4)cc3)ncnc2cn1` [Example 20, 6-(N,N-Dimethylamino)-4-[4-(1,3-dioxolan-2-yl)methoxyanilino]pyrido[3,4-d]pyrimidine], the results for the IC50 in test [4], in test [5] and in test [6] were 10 nM, 46000 nM and 2400 nM, respectively.

Consider `c1ccc(COc2ccc(Nc3ncnc4ccsc34)cc2)cc1` [Example 23, 4-(4-Benzyloxyanilino)thieno[3,2-d]pyrimidine hydrochloride], for which the IC50 in test [4] stood at 300 nM; in test [5] it was 5000 nM; in test [6] it was 2000 nM.

For `COc1ccccc1COc1ccc(Nc2ncnc3ccsc23)cc1Cl` [Example 24, 4-[3-Chloro-4-(2-methoxybenzyloxy)anilino]thieno[3,2-d]pyrimidine hydrochloride], the IC50 came out at 50 nM in test [4], 18000 nM in test [5] and 10000 nM in test [6].

For the compound `Fc1ccccc1COc1ccc(Nc2ncnc3ccsc23)cc1Cl` [Example 25, 4-[3-Chloro-4-(2-fluorobenzyloxy)anilino]thieno[3,2-d]pyrimidine hydrochloride], the values for the IC50 in test [4], in test [5] and in test [6] were 150 nM, 3000 nM and 500 nM, respectively.

With `Clc1cc(Nc2ncnc3ccsc23)ccc1OCc1ccccc1Br` [Example 26, 4-[4-(2-Bromobenzyloxy)-3-chloroanilino]thieno[3,2-d]pyrimidine hydrochloride], the IC50 in test [4] was determined as 230 nM; in test [5], 30000 nM; in test [6], 2500 nM.

Turning to `c1ccc(Cc2ccc(Nc3ncnc4ccsc34)cc2)cc1` [Example 28, 4-(4-Benzylanilino)thieno[3,2-d]pyrimidine hydrochloride], the 50% inhibitory concentration (IC50) in test [4] worked out at 200 nM; in test [5], 13000 nM; in test [6], 3000 nM.

As to `c1ccc(Oc2ccc(Nc3ncnc4ccsc34)cc2)cc1` [Example 29, 4-(4-Phenoxyanilino)thieno[3,2-d]pyrimidine hydrochloride], the IC50 in test [4] came to 110 nM; in test [5], 20000 nM; in test [6], 5000 nM.

`FC(F)(Oc1ccc(Nc2ncnc3ccsc23)cc1)c1ccccc1` [Example 30, 4-(4-(a,a-Difluorobenzyloxy)anilino)thieno[3,2-d]pyrimidine hydrochloride]: the IC50 in test [4] was 860 nM; in test [5] it was 15000 nM; in test [6] it was 6000 nM.

For the compound `Cc1csc2ncnc(Nc3ccc(OCc4ccccc4F)c(Cl)c3)c12` [Example 35, 4-[3-Chloro-4-(2-fluorobenzyloxy)anilino]-5-methylthieno[2,3-d]pyrimidine hydrochloride], the IC50 in test [4] is 99 nM; in test [5], 25000 nM; in test [6], 8000 nM.

With `Cc1csc2ncnc(Nc3ccc(OCC4CCCCC4)cc3)c12` [Example 36, 4-(4-Cyclohexylmethoxyanilino)-5-methylthieno[2,3-d]pyrimidine hydrochloride], the IC50 in test [4] is 500 nM; in test [5], 10000 nM; in test [6], 10000 nM.

Take `Cc1csc2ncnc(Nc3ccc(Oc4ccccc4)cc3)c12` [Example 37, 5-Methyl4-(4-phenoxyanilino)thieno[2,3-d]pyrimidine hydrochloride]: the half-inhibitory concentration (IC50) in test [4] was found to be 650 nM; in test [5], 25000 nM; in test [6], 17000 nM.

In the case of `c1ccc(Oc2ccc(Nc3ncnc4scc(-c5cccs5)c34)cc2)cc1` [Example 38, 4-(4-Phenoxyanilino)-5-(2-thienyl)thieno[2,3-d]pyrimidine hydrochloride], the values for the IC50 in test [4], in test [5] and in test [6] were 490 nM, 20000 nM and 20000 nM, respectively.
